Where two headings read alike, the source gives them in different places.
Assays:
[1] = molecular target: T1, PDE4B: The catalytic domain of human PDE4B from S152-S528 (Homo sapiens, UniProt Q07343); assay: PDE4 IC50 determination by Scintillation Proximity Assay, PDE4B; type: biochemical
T1 construct: His6 (N); thrombin cleavage site (N); made in house; host or cells: E. coli
Method in brief: (§1)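 Hydrolysis of [^3H]cAMP measured by SPA with yttrium silicate beads, which bind the [^3H]AMP product strongly and cAMP weakly. Enzyme at 80 ng/ml for PDE4B, 4 ng/ml for PDE4D; 30 min at 30°.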

PDE4D = molecular target: T2, PDE4D (Homo sapiens, UniProt Q08499); assay: PDE4 IC50 determination by Scintillation Proximity Assay, PDE4D; type: biochemical
T2 construct: PDE4D: The catalytic domain of human PDE4B from S3 16-V692; His6 (N); thrombin cleavage site (N); made in house; host or cells: E. coli
T2 sequence (Q08499 380-756): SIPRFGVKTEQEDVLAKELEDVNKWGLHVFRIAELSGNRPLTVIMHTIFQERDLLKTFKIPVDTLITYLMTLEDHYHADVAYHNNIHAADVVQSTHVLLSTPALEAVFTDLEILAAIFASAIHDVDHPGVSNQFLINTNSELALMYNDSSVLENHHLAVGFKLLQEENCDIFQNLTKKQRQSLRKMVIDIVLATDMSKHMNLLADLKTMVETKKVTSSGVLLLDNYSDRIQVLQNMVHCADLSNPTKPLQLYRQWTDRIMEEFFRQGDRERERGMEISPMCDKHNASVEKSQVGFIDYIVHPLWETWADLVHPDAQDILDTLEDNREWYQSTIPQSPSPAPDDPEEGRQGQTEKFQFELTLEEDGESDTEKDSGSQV
Method in brief: as §1

[2] = tested on: TNFα levels in serum of LPS-challenged rats; assay: Rat inhibition studies: serum TNFα after iv LPS challenge; type: in vivo; details: po, 100 mg/kg po, read-out: % inhibition r TNFα
Method: All studies were done with male rats CD (SD) IGS BR (Crl) (Charles River, France), which were grouped in to 5 animal groups.
At the end of the acclimatization period, the non-fasted rats were weighed, individually identified on the tail with a permanent marker and administered by oral (po) or interperitoneal (ip) route with either vehicle, reference or test compound in a volume of 10 mL/kg adapted to the body weight. The animals were gathered in groups of 5 animals in a polystyrene labeled cage with sawdust covered floors. 2-hours after vehicle, reference or test substance administration, rats received an intravenous (iv) injection of 0.1 mg/kg LPS in a volume of 1 mL/kg of body weight. 2 h after LPS challenge (or as indicated in Tables 3B and 4B), blood samples were collected into tubes without anticoagulant by retro-orbital puncture under gas (isoflurane) anesthesia. Samples were allowed to clot at room temperature for 5 to 10 min then put on ice until there were prepared by centrifugation (6000×g for 3 min at 4° C.) and stored at −20° C. until use. TNFα levels were measured in serum samples in duplicate by ELISA technique according to the manufacturer's procedure (Rat TNFα kit Quantikine M (RTA00, R&D System, France)). Data are reported as percent decrease in observed TNFα levels versus TNFa levels observed for vehicle dosed animal groups.

[3] = molecular target: T3, full-length human PDE4B2 isozyme (Homo sapiens, UniProt Q07343); assay: PDE4 IC50 determination by Scintillation Proximity Assay, PDE4B2; type: biochemical; details: Table 1B, Formula I compounds; read-out: IC50 PDE4B2
T3 construct: The full-length human PDE4B2 isozyme; His6 (N); TEV cleavage site (N); made in house; host or cells: baculovirus infected insect cells (unpurified lysate)
T3 sequence (Q07343 1-564 isoform Q07343-2): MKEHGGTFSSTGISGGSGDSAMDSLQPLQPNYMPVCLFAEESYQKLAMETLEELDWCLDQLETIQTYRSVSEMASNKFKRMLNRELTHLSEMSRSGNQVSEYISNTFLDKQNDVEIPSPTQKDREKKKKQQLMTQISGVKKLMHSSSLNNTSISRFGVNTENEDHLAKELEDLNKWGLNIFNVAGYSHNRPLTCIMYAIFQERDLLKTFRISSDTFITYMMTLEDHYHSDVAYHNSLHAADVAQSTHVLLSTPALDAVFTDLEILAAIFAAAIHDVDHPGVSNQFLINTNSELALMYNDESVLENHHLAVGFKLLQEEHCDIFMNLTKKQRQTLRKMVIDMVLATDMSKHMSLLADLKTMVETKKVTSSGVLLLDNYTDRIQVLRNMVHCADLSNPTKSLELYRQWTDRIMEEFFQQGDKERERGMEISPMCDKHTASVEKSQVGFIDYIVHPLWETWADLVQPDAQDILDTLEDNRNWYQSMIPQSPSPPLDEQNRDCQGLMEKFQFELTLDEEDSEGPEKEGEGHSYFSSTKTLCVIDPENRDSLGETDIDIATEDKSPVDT
Method in brief: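 Unpurified His6-TEV-tagged full-length human PDE4B2 from baculovirus-infected insect cell lysate (2.5 μl of 50% glycerol stock/ml) hydrolysed [3H]cAMP in 50 mM Tris pH 7.5, 8.3 mM MgCl, 1.7 mM EGTA, 0.01% BSA for 30 min at 30°. Stopped with SPA beads in 18 mM ZnSO4; [3H]AMP scintillation counted, IC50 by non-linear regression.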

[4] = molecular target: T4, full-length human PDE4D5 isozyme (Homo sapiens, UniProt Q08499); assay: PDE4 IC50 determination by Scintillation Proximity Assay, PDE4D5; type: biochemical; details: Table 1B, Formula I compounds; read-out: IC50 PDE4D5
T4 construct: The full-length human PDE4D5 isozyme; His6 (N); TEV cleavage site (N); made in house; host or cells: baculovirus infected insect cells (unpurified lysate)
T4 sequence (Q08499 1-745 isoform Q08499-6): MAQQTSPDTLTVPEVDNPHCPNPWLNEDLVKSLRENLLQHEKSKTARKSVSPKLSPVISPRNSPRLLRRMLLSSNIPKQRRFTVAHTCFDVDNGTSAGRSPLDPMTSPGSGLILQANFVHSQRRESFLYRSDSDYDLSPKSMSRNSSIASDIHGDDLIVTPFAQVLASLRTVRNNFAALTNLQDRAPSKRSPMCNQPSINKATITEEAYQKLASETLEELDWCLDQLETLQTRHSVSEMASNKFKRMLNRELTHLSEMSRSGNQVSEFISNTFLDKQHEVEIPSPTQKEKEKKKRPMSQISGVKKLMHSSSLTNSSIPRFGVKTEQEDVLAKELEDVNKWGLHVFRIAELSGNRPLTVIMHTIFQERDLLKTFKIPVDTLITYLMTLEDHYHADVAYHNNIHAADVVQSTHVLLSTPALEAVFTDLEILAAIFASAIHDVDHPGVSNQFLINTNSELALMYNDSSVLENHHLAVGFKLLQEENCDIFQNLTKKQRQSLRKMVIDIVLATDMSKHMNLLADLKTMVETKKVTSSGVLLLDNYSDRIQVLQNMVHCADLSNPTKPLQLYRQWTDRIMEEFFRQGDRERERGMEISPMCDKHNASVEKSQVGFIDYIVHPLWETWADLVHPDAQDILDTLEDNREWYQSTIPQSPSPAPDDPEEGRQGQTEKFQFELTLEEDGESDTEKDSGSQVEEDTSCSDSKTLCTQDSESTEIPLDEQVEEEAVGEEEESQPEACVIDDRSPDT
Method in brief: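 Unpurified His6-tagged full-length human PDE4D5 from baculovirus-infected insect cell lysate, 0.083 μl glycerol stock/ml, hydrolysed [3H]cAMP in Tris pH 7.5/MgCl/EGTA buffer, 30 min at 30°. ZnSO4/SPA beads stop; [3H]AMP counted. Controls: DMSO and roflumilast; 11-point duplicate curves, nonlinear-regression IC50.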

[5] = Table 1B, Formula I compounds, read-out: IC50 PDE4B
[6] = Table 1B, Formula I compounds, read-out: IC50 PDE4D
[7] = 2 h, rat in vivo inhibition assay, 2 hr challenge delay
[8] = 2 h, rat in vivo, 2 hr challenge delay, percent decrease in TNFα versus vehicle
[9] = second part of Table 2B (2-23 to 2-103), column 3, column is PDE4B in first part, read-out: IC 50 vs. indicated assay h TNFα
[10] = second part of Table 2B (2-23 to 2-103), column 5, column is PDE4D in first part, read-out: IC 50 vs. indicated assay h TNFα

T1 sequence (Q07343 with tags, fused parts or gaps): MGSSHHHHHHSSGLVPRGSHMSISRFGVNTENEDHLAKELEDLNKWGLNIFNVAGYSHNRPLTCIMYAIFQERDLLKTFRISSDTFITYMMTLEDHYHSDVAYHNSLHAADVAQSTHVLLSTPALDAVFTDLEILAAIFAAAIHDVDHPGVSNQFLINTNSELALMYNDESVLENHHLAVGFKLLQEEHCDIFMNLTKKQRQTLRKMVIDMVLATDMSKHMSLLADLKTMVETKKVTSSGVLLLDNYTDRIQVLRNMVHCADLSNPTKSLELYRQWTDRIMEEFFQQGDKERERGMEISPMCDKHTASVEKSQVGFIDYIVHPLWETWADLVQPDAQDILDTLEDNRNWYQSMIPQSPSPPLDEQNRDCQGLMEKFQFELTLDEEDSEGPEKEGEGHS

Compound | IC50 [1, 5] [µM] | IC50 (PDE4D; [6]) [µM] | IC50 [3] [µM] | IC50 [4] [µM] | further results
N#Cc1c(Nc2ccc(OC(F)F)cc2)sc(C(=O)c2ccccc2)c1N [Compound 1-166, 4-Amino-5-benzoyl-2-(4-difluoromethoxy-phenylamino)-thiophene-3-carbonitrile] | < 10 | < 10 |  |  | inhibition in vivo at 100 mg/kg [2, 7]: < 20%
CSc1ccc(Nc2sc(C(=O)c3ccccc3)c(N)c2C#N)cc1 [Compound 1-167, 4-Amino-5-benzoyl-2-(4-methylsulfanyl-phenylamino)-thiophene-3-carbonitrile] | < 10 | < 10 |  |  | inhibition in vivo at 100 mg/kg [2, 7]: < 20%
COc1ccc(C(=O)c2sc(Nc3cccc(SC)c3)c(C#N)c2N)cc1 [Compound 1-177, 4-Amino-5-(4-methoxy-benzoyl)-2-(3-methylsulfanyl-phenylamino)-thiophene-3-carbonitrile] | < 10 | < 10 |  |  | inhibition in vivo at 100 mg/kg [2, 7]: < 20%
N#Cc1c(NCc2ccccc2)sc(C(=O)c2cc(-c3ccccc3)no2)c1N [Compound 1-193, 4-Amino-2-benzylamino-5-(3-phenyl-isoxazole-5-carbonyl)-thiophene-3-carbonitrile] | < 10 |  | > 10 | > 10 | inhibition in vivo at 100 mg/kg [2, 7]: < 20%
N#Cc1c(NC2CCCC2)sc(C(=O)c2cc(-c3c(Cl)cccc3Cl)no2)c1N [Compound 1-211, 4-Amino-2-cyclopentylamino-5-[3-(2,6-dichloro-phenyl)-isoxazole-5-carbonyl]-thiophene-3-carbonitrile] | < 10 | < 10 | < 10 | < 10 | 
N#Cc1c(NCCN2CCOCC2)sc(C(=O)c2cc(-c3ccccc3)no2)c1N [Compound 1-213, 4-Amino-2-(2-morpholin-4-yl-ethylamino)-5-(3-phenyl-isoxazole-5-carbonyl)-thiophene-3-carbonitrile] | < 10 | < 10 | > 10 | > 10 | 
N#Cc1c(NCc2cccc(Cl)c2)sc(C(=O)c2cc(-c3ccccc3)no2)c1N [Compound 1-214, 4-Amino-2-(3-chloro-benzylamino)-5-(3-phenyl-isoxazole-5-carbonyl)-thiophene-3-carbonitrile] | > 10 | > 10 | > 10 | > 10 | 
N#Cc1c(NC2CCCC2)sc(C(=O)c2nc3ccccc3s2)c1N [Compound 1-215, 4-Amino-5-(benzothiazole-2-carbonyl)-2-cyclopentylamino-thiophene-3-carbonitrile] | < 10 | < 10 | < 10 | < 10 | 
COc1cccc(CNc2sc(C(=O)c3cc(-c4ccccc4)no3)c(N)c2C#N)c1 [Compound 1-216] | > 10 | > 10 | > 10 | > 10 | 
CC(C)(C)Nc1sc(C(=O)c2cc(-c3ccccc3)no2)c(N)c1C#N [Compound 1-224, 4-Amino-2-tert-butylamino-5-(3-phenyl-isoxazole-5-carbonyl)-thiophene-3-carbonitrile] | < 10 | < 10 | < 10 | < 10 | 
CC(C)CNc1sc(C(=O)c2cc(-c3ccc(Cl)c(Cl)c3)no2)c(N)c1C#N [Compound 1-226, 4-Amino-5-[3-(3,4-dichloro-phenyl)-isoxazole-5-carbonyl]-2-isobutylamino-thiophene-3-carbonitrile] | > 10 | > 10 | > 10 | > 10 | 
N#Cc1c(NC2CCCC2)sc(C(=O)c2cc(-c3ccc(Cl)cc3Cl)no2)c1N [Compound 1-227, 4-Amino-2-cyclopentylamino-5-[3-(2,4-dichloro-phenyl)-isoxazole-5-carbonyl]-thiophene-3-carbonitrile] | < 10 | < 10 | > 10 | > 10 | 
CCC(CC)Nc1sc(C(=O)c2cc(-c3ccccc3)no2)c(N)c1C#N [Compound 1-228, 4-Amino-2-(1-ethyl-propylamino)-5-(3-phenyl-isoxazole-5-carbonyl)-thiophene-3-carbonitrile] | < 10 | < 10 | > 10 | > 10 | 
CC(C)CNc1sc(C(=O)c2ccc(Oc3ccccc3)cc2)c(N)c1C#N [Compound 1-233, 4-Amino-2-isobutylamino-5-(4-phenoxy-benzoyl)-thiophene-3-carbonitrile] | < 10 | < 10 | < 10 | < 10 | 
CC(C)C(C)Nc1sc(C(=O)c2cc(-c3ccc(Cl)c(Cl)c3)no2)c(N)c1C(N)=O (stereo not drawn) [Compound 1-248, 4-Amino-5-[3-(3,4-dichloro-phenyl)-isoxazole-5-carbonyl]-2-(1,2-dimethyl-propylamino)-thiophene-3-carboxylic acid amide] | < 10 | < 10 | < 10 | > 10 | 
CCOC(=O)c1cc(C(=O)c2sc(Nc3ccccc3F)nc2N)on1 [Compound 2-1, 5-[4-Amino-2-(2-fluoro-phenylamino)-thiazole-5-carbonyl]-isoxazole-3-carboxylic acid ethyl ester] |  |  |  |  | IC50 ([1]; first part of Table 2B (2-1 to 2-22), read-out: IC 50 vs. indicated assay PDE4B): < 10 µM; IC50 (PDE4D; first part of Table 2B (2-1 to 2-22), read-out: IC 50 vs. indicated assay PDE4D): < 10 µM; inhibition in vivo at 100 mg/kg [2, 8]: < 20%
CCOC(=O)c1ccc(Nc2nc(N)c(C(=O)c3ccccc3)s2)cc1 [Compound 2-33, 4-(4-Amino-5-benzoyl-thiazol-2-ylamino)-benzoic acid ethyl ester] |  |  |  |  | IC50 [1, 9]: < 10 µM; IC50 (PDE4D; [10]): > 10 µM; inhibition in vivo at 100 mg/kg [2, 8]: > 20%
COC(=O)c1cccc(Nc2nc(N)c(C(=O)c3ccccc3)s2)c1 [Compound 2-34, 3-(4-Amino-5-benzoyl-thiazol-2-ylamino)-benzoic acid methyl ester] |  |  |  |  | IC50 [1, 9]: < 10 µM; IC50 (PDE4D; [10]): < 10 µM; inhibition in vivo at 100 mg/kg [2, 8]: < 20%
CCOC(=O)c1ccc(Nc2nc(N)c(C(=O)c3ccc(OC)cc3)s2)cc1 [Compound 2-38, 4-[4-Amino-5-(4-methoxy-benzoyl)-thiazol-2-ylamino]-benzoic acid ethyl ester] |  |  |  |  | IC50 [1, 9]: < 10 µM; IC50 (PDE4D; [10]): < 10 µM; inhibition in vivo at 100 mg/kg ([2]; 1 h, rat in vivo, 1 hr): < 20%
COc1ccc(C(=O)c2sc(Nc3ccc(C(=O)O)cc3)nc2N)cc1 [Compound 2-40, 4-[4-Amino-5-(4-methoxy-benzoyl)-thiazol-2-ylamino]-benzoic acid] |  |  |  |  | IC50 [1, 9]: < 10 µM; IC50 (PDE4D; [10]): < 10 µM; inhibition in vivo at 100 mg/kg ([2]; 1 h, rat in vivo, 1 hr): < 20%
COc1ccc(C(=O)c2sc(Nc3c(Cl)cccc3Cl)nc2N)cc1 [Compound 2-41, [4-Amino-2-(2,6-dichloro-phenylamino)-thiazol-5-yl]-(4-methoxy-phenyl)-methanone] |  |  |  |  | IC50 [1, 9]: < 10 µM; IC50 (PDE4D; [10]): < 10 µM; inhibition in vivo at 100 mg/kg [2, 8]: < 20%
Nc1nc(Nc2c(Cl)cccc2Cl)sc1C(=O)C1CCCC1 [Compound 2-93, [4-Amino-2-(2,6-dichloro-phenylamino)-thiazol-5-yl]-cyclopentyl-methanone] |  |  |  |  | IC50 [1, 9]: < 10 µM; IC50 (PDE4D; [10]): < 10 µM; inhibition in vivo at 100 mg/kg ([2]; 1 h, rat in vivo, 1 hr): < 20%
